For assay [1], the target named is T1, TRNT1 (Homo sapiens, UniProt Q96Q11).
T1 construct: residues 42-434, no mitochondrial transport signal; N-terminal His6-TEV tag cleaved; E. coli KRX
T1 sequence (Q96Q11 42-434): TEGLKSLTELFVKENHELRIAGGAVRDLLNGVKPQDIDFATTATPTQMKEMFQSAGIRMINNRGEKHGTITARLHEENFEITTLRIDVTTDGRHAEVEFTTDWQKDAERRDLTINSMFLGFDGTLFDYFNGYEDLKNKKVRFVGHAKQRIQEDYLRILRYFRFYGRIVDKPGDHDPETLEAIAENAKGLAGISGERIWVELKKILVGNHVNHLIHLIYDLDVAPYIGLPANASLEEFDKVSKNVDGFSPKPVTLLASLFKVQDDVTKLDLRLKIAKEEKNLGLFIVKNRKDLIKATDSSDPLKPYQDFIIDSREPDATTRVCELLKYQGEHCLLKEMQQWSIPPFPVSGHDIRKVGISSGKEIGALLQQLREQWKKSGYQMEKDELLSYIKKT
The assay is described as follows: differential scanning fluorimetry (SYPRO Orange). The assay is classed as binding. As to conditions: 5 uM protein, pH 7.5, 150 mM NaCl; thermal stabilisation. For orientation: Differential scanning fluorimetry follows unfolding on heating by fluorescence.

Assay [2] deals with T1, TRNT1. The assay can be described thus: cryo-EM structure. The format is binding. The conditions noted are these: TRNT1 active site; complex with TRMT10C(SAH)/SDR5C1(NADH)/tRNA-Ile; 0.5 mM CDP, pH 8.0.
The target of assay [3] is T2, TRMT10C/SDR5C1 complex (NADH site in SDR5C1) (Homo sapiens, UniProt Q99714).
T2 construct: gene HSD17B10; SDR5C1 residues 1-261 co-expressed with TRMT10C residues 40-403 in E. coli; SDR5C1 tetramer; HisTrap purified; with tRNA methyltransferase 10 homolog C
T2 sequence (Q99714 1-261): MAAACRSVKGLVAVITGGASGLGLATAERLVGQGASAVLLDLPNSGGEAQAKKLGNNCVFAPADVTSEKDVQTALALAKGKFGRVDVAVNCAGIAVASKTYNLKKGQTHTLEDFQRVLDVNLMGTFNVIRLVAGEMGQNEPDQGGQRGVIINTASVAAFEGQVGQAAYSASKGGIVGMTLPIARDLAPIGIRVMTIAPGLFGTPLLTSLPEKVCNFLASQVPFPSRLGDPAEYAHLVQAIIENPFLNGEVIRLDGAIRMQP
T2 sequence (Q7L0Y3 40-403 partner): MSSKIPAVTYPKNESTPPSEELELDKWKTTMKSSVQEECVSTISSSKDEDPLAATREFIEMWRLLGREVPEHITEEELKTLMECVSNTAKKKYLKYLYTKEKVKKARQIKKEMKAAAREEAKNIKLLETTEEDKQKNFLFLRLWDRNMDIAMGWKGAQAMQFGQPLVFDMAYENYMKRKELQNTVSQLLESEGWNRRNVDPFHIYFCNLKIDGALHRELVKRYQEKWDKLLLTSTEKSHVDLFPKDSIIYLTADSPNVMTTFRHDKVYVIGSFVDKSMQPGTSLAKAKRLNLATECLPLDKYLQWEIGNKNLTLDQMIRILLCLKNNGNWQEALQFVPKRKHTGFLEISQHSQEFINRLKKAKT
The assay is described as follows: differential scanning fluorimetry (SYPRO Orange). As to conditions: 5 uM protein, pH 7.5, 150 mM NaCl; thermal stabilisation. The format is binding.

In assay [4] the target is T3, TRMT10C/SDR5C1 complex (SAM/SAH site in TRMT10C) (Homo sapiens, UniProt Q7L0Y3).
T3 construct: TRMT10C residues 40-403 (no mitochondrial transport signal) co-expressed with SDR5C1 residues 1-261 in E. coli; 2:4 TRMT10C:SDR5C1; HisTrap purified; with 3-hydroxyacyl-CoA dehydrogenase type-2
T3 sequence (Q7L0Y3 40-403): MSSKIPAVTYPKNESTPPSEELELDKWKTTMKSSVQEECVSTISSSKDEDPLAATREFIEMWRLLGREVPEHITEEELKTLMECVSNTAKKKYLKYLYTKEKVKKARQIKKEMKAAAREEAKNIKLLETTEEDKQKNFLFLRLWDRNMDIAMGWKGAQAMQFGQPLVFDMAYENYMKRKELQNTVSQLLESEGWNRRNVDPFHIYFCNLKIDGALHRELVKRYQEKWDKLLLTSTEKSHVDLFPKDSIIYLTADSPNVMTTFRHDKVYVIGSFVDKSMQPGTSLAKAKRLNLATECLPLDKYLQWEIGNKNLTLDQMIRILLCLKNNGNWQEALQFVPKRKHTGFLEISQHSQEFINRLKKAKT
T3 sequence (Q99714 1-261 partner): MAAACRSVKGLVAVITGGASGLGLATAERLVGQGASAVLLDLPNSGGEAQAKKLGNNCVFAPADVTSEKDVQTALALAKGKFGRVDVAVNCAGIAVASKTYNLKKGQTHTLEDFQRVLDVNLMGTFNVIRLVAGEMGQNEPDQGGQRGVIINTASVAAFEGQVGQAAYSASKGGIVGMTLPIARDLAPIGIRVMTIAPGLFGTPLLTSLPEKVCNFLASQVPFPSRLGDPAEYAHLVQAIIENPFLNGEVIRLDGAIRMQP
The assay is described as follows: cryo-EM structure. As to conditions: methyltransferase active site of TRMT10C; with NADH and pre-tRNA-Ile (8CBO); also with PRORP D479A (8CBK), ELAC2 H548A (8CBL) or TRNT1 (8CBM). The assay is classed as binding.

For assay [5], the target named is T3, TRMT10C/SDR5C1 complex (SAM/SAH site in TRMT10C). The assay is described as follows: differential scanning fluorimetry (SYPRO Orange). The format is binding. The conditions noted are these: 5 uM protein, pH 7.5, 150 mM NaCl; thermal stabilisation.
The target is the same in assay [6]. The assay can be described thus: 3H-methyl transfer to pre-tRNA, scintillation counting. The format is biochemical. As to conditions: pre-tRNA-Ile (G9) or pre-tRNA-His-Ser (A9), pH 8.5, 5 mM MgCl2, 37 °C; labelled compound.
For assay [7], the target named is T4, ELAC2 H548A (residues 31-826) (human, UniProt Q9BQ52 31-826, H548A).
T4 construct: human ELAC2 (long-form RNase Z), UniProt Q9BQ52, residues 31-826; pET28a-derived vector, His6-TEV site; treated with TEV protease; also called mt-RNase Z; source: E. coli KRX, purified like WT (HisTrap, Resource Q, TEV, SEC); not shown: His6, N-terminal, cleaved
T4 sequence (looked up): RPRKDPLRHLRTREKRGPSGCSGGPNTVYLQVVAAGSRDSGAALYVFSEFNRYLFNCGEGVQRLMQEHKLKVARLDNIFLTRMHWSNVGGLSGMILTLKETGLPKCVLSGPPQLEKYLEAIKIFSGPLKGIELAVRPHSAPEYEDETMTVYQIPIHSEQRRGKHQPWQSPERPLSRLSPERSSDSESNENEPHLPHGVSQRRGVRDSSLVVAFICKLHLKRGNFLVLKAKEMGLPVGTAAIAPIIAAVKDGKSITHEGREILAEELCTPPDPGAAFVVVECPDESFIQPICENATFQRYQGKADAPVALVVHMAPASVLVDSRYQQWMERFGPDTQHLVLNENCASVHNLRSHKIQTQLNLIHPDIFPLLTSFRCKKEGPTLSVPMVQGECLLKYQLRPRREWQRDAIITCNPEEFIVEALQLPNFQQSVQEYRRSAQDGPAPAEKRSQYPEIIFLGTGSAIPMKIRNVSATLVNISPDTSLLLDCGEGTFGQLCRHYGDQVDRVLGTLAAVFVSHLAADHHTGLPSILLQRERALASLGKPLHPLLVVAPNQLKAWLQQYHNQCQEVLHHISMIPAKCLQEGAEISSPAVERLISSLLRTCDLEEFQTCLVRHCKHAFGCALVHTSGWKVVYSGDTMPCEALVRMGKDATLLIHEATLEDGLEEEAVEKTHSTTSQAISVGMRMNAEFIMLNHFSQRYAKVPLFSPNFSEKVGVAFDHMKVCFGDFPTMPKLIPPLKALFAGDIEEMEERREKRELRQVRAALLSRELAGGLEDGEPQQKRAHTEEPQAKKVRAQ
The assay is described as follows: cryo-EM structure; Complex 3: 1 uM TRMT10C/SDR5C1, 10 uM SAH, 10 uM NADH, 5 uM pre-tRNA^His(0,Ser), then 5 uM ELAC2 H548A; 50 mM Tris pH 8.0, 100 mM NaCl, 1 mM TCEP; ELAC2 sits on the pre-tRNA held by the subcomplex. The conditions noted are these: both partners purified.

Assay [8] deals with T5, PRORP D479A (residues 45-583) (human, UniProt O15091 45-583, D479A).
T5 construct: human PRORP (protein-only RNase P endoribonuclease), UniProt O15091, residues 45-583; pET28a-derived vector, His6-TEV site; treated with TEV protease; source: E. coli BL21(DE3) Rosetta, purified like WT (HisTrap, TEV, SEC); not shown: His6, N-terminal, cleaved
T5 sequence (looked up): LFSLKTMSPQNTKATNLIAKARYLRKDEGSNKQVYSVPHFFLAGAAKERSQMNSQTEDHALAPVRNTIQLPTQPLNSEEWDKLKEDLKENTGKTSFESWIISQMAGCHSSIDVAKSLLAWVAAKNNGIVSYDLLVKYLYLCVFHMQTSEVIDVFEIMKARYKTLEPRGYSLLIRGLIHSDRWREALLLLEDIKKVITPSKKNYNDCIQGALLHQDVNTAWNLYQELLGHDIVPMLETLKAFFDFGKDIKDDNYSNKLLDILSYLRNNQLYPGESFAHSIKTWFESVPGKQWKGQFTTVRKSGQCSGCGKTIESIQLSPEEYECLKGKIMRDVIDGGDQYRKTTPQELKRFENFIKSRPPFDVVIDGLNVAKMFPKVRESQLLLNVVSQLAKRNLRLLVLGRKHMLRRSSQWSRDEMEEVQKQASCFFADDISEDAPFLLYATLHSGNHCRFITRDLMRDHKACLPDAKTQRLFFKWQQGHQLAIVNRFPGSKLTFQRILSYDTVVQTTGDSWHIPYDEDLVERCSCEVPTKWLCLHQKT
The assay can be described thus: cryo-EM structure; Complex 2: 4 uM TRMT10C/SDR5C1, 40 uM SAH, 40 uM NADH, 20 uM pre-tRNA^His-Ser, then 10 uM PRORP D479A; 50 mM Tris pH 8.0, 100 mM NaCl, 1 mM TCEP; PRORP sits on the pre-tRNA held by the subcomplex. The conditions noted are these: both partners purified.

`Nc1ncnc2c1ncn2[C@@H]1O[C@H](COP(=O)(O)OP(=O)(O)OP(=O)(O)O)[C@@H](O)[C@H]1O` [ATP]: in assay [1], the Tm result is “CTP, ATP or CDP to TRNT1 stabilised these enzymes”.

`Nc1ccn([C@@H]2O[C@H](COP(=O)(O)OP(=O)(O)O)[C@@H](O)[C@H]2O)c(=O)n1` [CDP]: the Tm result in assay [1] was “CTP, ATP or CDP to TRNT1 stabilised these enzymes”. The cryo-EM structure result in assay [2] is reported as “a molecule of CDP that is likely π-stacked with the substrate A73 nucleotide”.

`Nc1ccn([C@@H]2O[C@H](COP(=O)(O)OP(=O)(O)OP(=O)(O)O)[C@@H](O)[C@H]2O)c(=O)n1` [CTP]: the Tm result in assay [1] is “CTP, ATP or CDP to TRNT1 stabilised these enzymes”.

As to `NC(=O)C1=CN([C@@H]2O[C@H](COP(=O)(O)OP(=O)(O)OC[C@H]3O[C@@H](n4cnc5c(N)ncnc54)[C@H](O)[C@@H]3O)[C@@H](O)[C@H]2O)C=CC1` [NADH], the Tm entry in assay [3] was “NADH to SDR5C1 and CTP, ATP or CDP to TRNT1 stabilised these enzymes”.

With `Nc1ncnc2c1ncn2[C@@H]1O[C@H](CSCC[C@H](N)C(=O)O)[C@@H](O)[C@H]1O` [SAH], the cryo-EM structure entry in assay [4] is “In all the structures, the TRMT10C catalytic pocket contains SAH”. For the same molecule, the Tm entry in assay [5] is “addition of co-factors or co-factor analogues, i.e. SAH to TRMT10C”.

Turning to `C[S+](CC[C@H](N)C(=O)O)C[C@H]1O[C@@H](n2cnc3c(N)ncnc32)[C@H](O)[C@@H]1O` (stereo partly shown) [SAM], in assay [6], the “3H-methyl transfer to pre-tRNA, scintillation counting” value is “Methylation assays, using ^3H-SAM as methyl donor, showed that the TRMT10C/SDR5C1 complex methylates”.

B1: TRMT10C (residues 40-403, without the mitochondrial transport signal) (enzyme, human, UniProt Q7L0Y3 40-403, looked up)
chain: MSSKIPAVTYPKNESTPPSEELELDKWKTTMKSSVQEECVSTISSSKDEDPLAATREFIEMWRLLGREVPEHITEEELKTLMECVSNTAKKKYLKYLYTKEKVKKARQIKKEMKAAAREEAKNIKLLETTEEDKQKNFLFLRLWDRNMDIAMGWKGAQAMQFGQPLVFDMAYENYMKRKELQNTVSQLLESEGWNRRNVDPFHIYFCNLKIDGALHRELVKRYQEKWDKLLLTSTEKSHVDLFPKDSIIYLTADSPNVMTTFRHDKVYVIGSFVDKSMQPGTSLAKAKRLNLATECLPLDKYLQWEIGNKNLTLDQMIRILLCLKNNGNWQEALQFVPKRKHTGFLEISQHSQEFINRLKKAKT
notes: human TRMT10C, tRNA methyltransferase of mitochondrial RNase P, UniProt Q7L0Y3, residues 40-403; The subcomplex was purified on a HisTrap column; also called MTase; source: E. coli BL21(DE3) Rosetta, co-expressed with SDR5C1, purified (HisTrap, SEC, heparin, SEC)
In the case of B1, the binding result in assay [7] and in assay [8] was “binds” throughout.

The values above are taken from article PMC11144196, “Structural basis for human mitochondrial tRNA maturation” (Nature Communications, 2024).
